The text below walks through data of patent US20250179057A1, “MEK IMMUNE ONCOLOGY INHIBITORS AND THERAPEUTIC USES THEREOF” (Immuneering Corporation, priority 2022, published 2025).

Series [1] can be described thus: Kinetic solubility (PBS pH 7.4; 4 hr). The series is classed as physicochemical. As to conditions: free base (Table 19), read-out: Kinetic Solubility. As for the experimental part: The plates were shaken for 4 h at room temperature in an Eppendorf Thermomixer. After incubation, the plates were centrifuged for 20 minutes at 4680 rpm. From the supernatant, 150 μL was transferred to a new 96 well plate and 50 μL DMSO was added to ensure continued dissolution. Samples were measured on LC-UV at injection volumes of 1 and 8 μL. Peak areas were determined and compared to peak areas obtained using calibration curves of the test compounds in DMSO.

The nature of series [2]: Mouse pharmacokinetics (oral cassette dosing), plasma. The series is classed as in vivo. As to conditions: BALB/c immunocompetent mice, 5 mg/kg p.o. Here is the method: Female mice (BALC/c) received a single dose (3 mice/treatment) of vehicle (10% 1N HCl:90% [20% […]) and at 0.5, 1, 2, 4, 8, 12 and 24-hour post dose humanely euthanized.
Blood was obtained through cardiac puncture into K+EDTA tubes, mixed by inversion and centrifuged to obtain the plasma. Blood will be kept on ice or at approximately 4° C. prior. Centrifugation will take place within 30 minutes of blood collection affording plasma samples. Plasma samples will be frozen as soon as possible after centrifugation and stored at −80° C. until analysis. All samples will be analysed by means of LC-MS/MS. Method development for bioanalysis will be performed by pharmacokinetics Department of Crown Bioscience (Taicang) Inc. using LC-MS/MS analysis (using Waters HSS T3 2.1×50 mm (1.8 um) LC column, and an API-4000 Electrospray MS unit). The results of a kinetic solubility (free base) study are represented in Table 19.

Series [3] has as its target CYP2D6 (Homo sapiens, UniProt P10635). Description: in vitro. The following applies: microsomes, pH 7.4.
Series [4] is described as follows: Hepatocyte stability, human. The series is classed as in vitro ADME. The following applies: 0.5 million cells/ml; for half-life at 2 μM: human hepatocytes, 120 min; for CLint scaled at 2 μM: human, hepatocytes. As for the experimental part: In this study, human, cynomolgus monkey, beagle dog, wistar hannover rat, and balb/c mouse hepatocyle stability was determined.

Series [5] has as its target T1, CYP1A2 (Homo sapiens, UniProt P05177).
T1 sequence (P05177 1-516): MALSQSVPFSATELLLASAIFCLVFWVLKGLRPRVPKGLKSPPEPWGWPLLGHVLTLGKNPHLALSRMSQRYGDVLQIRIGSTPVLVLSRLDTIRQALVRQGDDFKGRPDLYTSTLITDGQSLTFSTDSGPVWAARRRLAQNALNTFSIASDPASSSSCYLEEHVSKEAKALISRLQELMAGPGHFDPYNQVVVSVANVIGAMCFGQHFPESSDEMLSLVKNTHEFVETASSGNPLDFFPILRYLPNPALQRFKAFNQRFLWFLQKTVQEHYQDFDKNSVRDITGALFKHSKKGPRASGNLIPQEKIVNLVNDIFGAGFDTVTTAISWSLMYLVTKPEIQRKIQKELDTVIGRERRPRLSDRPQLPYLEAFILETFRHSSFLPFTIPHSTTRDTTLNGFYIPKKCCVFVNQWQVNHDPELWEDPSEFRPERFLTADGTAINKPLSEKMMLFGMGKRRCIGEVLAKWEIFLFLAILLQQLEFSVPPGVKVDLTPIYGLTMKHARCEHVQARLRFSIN
The series is described as follows: CYP450 panel inhibition in human liver microsomes, 1A2 (phenacetin). The following applies: for inhibition at 30 min, 10 µM: human, microsomes, pH 7.4; for CYP-1A2 (Phenacetin) mean percentage CYP inhibition: human liver microsomes, 10 μM, substrate phenacetin.

For series [6], the target named is T2, CYP2B6 (Homo sapiens, UniProt P20813).
T2 sequence (P20813 1-491): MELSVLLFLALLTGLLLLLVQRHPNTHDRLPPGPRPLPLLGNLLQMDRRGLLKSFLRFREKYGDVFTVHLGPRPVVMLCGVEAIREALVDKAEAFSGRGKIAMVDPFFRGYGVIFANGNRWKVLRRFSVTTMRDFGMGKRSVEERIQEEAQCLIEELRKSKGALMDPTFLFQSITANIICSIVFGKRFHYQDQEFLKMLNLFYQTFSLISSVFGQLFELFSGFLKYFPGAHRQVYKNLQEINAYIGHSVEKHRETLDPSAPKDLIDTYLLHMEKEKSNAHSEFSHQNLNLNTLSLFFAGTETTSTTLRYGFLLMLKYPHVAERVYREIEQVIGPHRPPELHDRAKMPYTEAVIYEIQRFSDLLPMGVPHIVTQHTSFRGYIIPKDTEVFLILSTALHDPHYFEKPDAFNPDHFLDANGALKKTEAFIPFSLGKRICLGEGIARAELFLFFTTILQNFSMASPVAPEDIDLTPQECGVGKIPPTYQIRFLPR
The series is described as follows: in vitro. As to conditions: microsomes, pH 7.4.

Series [7] deals with T3, CYP2C8 (Homo sapiens, UniProt P10632).
T3 sequence (P10632 1-490): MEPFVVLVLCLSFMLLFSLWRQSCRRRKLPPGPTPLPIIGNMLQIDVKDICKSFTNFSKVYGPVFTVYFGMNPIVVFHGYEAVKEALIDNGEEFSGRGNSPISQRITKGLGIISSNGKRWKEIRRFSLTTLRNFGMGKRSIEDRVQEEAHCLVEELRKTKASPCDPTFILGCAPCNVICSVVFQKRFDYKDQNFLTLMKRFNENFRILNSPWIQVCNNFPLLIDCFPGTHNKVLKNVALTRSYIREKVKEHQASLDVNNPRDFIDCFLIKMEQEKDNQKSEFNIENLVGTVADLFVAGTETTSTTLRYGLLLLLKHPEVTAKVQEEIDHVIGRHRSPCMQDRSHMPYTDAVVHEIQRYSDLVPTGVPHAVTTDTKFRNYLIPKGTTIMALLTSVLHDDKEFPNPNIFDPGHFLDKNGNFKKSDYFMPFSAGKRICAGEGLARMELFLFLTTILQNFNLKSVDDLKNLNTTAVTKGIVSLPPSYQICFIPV
Description: CYP450 panel inhibition in human liver microsomes, 2C8 (amodiaquine). As to conditions: 10 μM, substrate amodiaquine.

The mark [8] stands for this setting: PBS buffer, pH 7.4, aqueous buffer, kinetic from dmso stock.
[9] abbreviates: female, mouse, read-out: AUC0-t.
Setting [10] is: read-out: CLint (L/hr/kg) (converted).

≈ marks a conversion by molar mass, not a printed value. Where a name gives a salt, the structure may show the parent alone. Read-outs that look alike come from different tables or passages of the source.

CYP2D6, sequence (P10635 whole entry): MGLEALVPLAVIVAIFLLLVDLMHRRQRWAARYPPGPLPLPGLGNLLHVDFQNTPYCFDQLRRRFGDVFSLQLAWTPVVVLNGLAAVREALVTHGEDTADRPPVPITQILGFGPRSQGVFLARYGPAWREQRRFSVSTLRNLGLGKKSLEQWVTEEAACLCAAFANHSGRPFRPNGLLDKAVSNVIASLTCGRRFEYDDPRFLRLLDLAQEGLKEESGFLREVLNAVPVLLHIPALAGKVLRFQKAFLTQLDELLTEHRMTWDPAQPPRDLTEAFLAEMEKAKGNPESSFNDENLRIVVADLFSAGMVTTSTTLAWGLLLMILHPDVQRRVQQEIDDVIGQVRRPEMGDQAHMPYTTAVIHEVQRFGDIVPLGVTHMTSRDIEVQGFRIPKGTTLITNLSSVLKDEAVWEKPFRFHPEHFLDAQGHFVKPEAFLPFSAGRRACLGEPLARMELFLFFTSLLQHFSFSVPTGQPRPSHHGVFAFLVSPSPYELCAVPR

In the case of `CNS(=O)(=O)Nc1cccc(Cc2c(CN3CCNCC3)c3cc(Cl)c(OC(=O)N(C)C)cc3oc2=O)c1Cl` [Compound 256, 6-chloro-3-(2-chloro-3-((N-methylsulfamoyl)amino)benzyl)-2-oxo-4-(piperazin-1-ylmethyl)-2H-chromen-7-yl dimethylcarbamate hydrochloride], in series [1] (setting [8]), the solubility (kinetic) at 4 h is over 80 µM. This molecule also yielded a total exposure AUC(0-inf) in series [2] (female, mouse) of 28.3 ng·h/mL. In addition, the AUC(0-t) in series [2] (setting [9]) is 19.5 ng·h/mL. Further, the Cmax in series [2] (female, mouse, read-out: Cmax) came to 8.3 ng/mL. In series [2] (female, mouse, read-out: Tmax), the Tmax was determined as 30 min. For the same molecule, the inhibition at 30 min, 10 µM amounted to 7.1% in series [3], 6.2% in series [5] and 1.9% in series [6]. Moreover, the half-life at 2 μM in series [4] was 927 min. The CLint scaled at 2 μM in series [4] (setting [10]) and in series [4] (read-out: CLint (mL/min/kg)) was 0.242 L/h/kg in each case.
Take `CNS(=O)(=O)Nc1cccc(Cc2c(CN(C)C)c3ccc(OC(=O)N(C)C)cc3oc2=O)c1Cl` [Compound 274, 3-(2-chloro-3-((N-methylsulfamoyl)amino)benzyl)-4-((dimethylamino)methyl)-2-oxo-2H-chromen-7-yl dimethylcarbamate]: the solubility (kinetic) at 4 h in series [1] (setting [8]) worked out at 78 µM (≈ 40.8 µg/mL). In series [2] (female, mouse), this molecule yielded a total exposure AUC(0-inf) of 396 ng·h/mL. Further, the half-life in series [2] (female, mouse) is 18 min. The AUC(0-t) in series [2] (setting [9]) came to 392 ng·h/mL. Further, the highest concentration (Cmax) in series [2] (female, mouse, read-out: Cmax) stood at 796 ng/mL. Besides, the time of peak concentration (Tmax) in series [2] (female, mouse, read-out: Tmax) is 4.98 min. In addition, the inhibition at 30 min, 10 µM in series [3] is 2.5%; in series [5], -3.4%; in series [6], -0.6%. This molecule showed a half-life at 2 μM in series [4] of 112 min. Also, the CLint scaled at 2 μM in series [4] (setting [10]) and in series [4] (read-out: CLint (mL/min/kg)) was 2.01 L/h/kg in each case.
Consider `CNS(=O)(=O)Nc1nccc(Cc2c(CN(C)C)c3ccc(OC(=O)N(C)C)cc3oc2=O)c1F` [Compound 124], for which, in series [5], the “CYP-1A2 (Phenacetin) mean percentage CYP inhibition” value is recorded as 9.9%. In addition, the “CYP-2C8 (Amodiaquine) mean percentage CYP inhibition” value in series [7] is on record as 59.0%.
Consider `CCN(C)Cc1c(Cc2cccc(NS(=O)(=O)NC)c2Cl)c(=O)oc2cc(OC(=O)N(C)C)ccc12` [Compound 245, 3-(2-chloro-3-((N-methylsulfamoyl)amino)benzyl)-4-((ethyl(methyl)amino)methyl)-2-oxo-2H-chromen-7-yl dimethylcarbamate], for which, in series [1] (setting [8]), the solubility (kinetic) at 4 h came out at 28 µM (≈ 15 µg/mL). Besides, in series [2] (setting [9]), the AUC(0-t) worked out at 154 ng·h/mL. The Cmax in series [2] (female, mouse, read-out: Cmax) amounted to 384 ng/mL. For the same molecule, the Tmax in series [2] (female, mouse, read-out: Tmax) turned out to be 4.98 min. Further, the figures for the inhibition at 30 min, 10 µM in series [3], in series [5] and in series [6] were 13.7%, -0.3% and 6%, respectively. The half-life at 2 μM in series [4] came out at 42.2 min. Further, the CLint scaled at 2 μM in series [4] (setting [10]) and in series [4] (read-out: CLint (mL/min/kg)) was 5.32 L/h/kg throughout.
`CCCS(=O)(=O)Nc1cccc(Cc2c(CN3CCNCC3)c3cc(Cl)c(OC(=O)N(C)C)cc3oc2=O)c1F` [Compound 167]: in series [5], the “CYP-1A2 (Phenacetin) mean percentage CYP inhibition” value worked out at 10.8%. Besides, the “CYP-2C8 (Amodiaquine) mean percentage CYP inhibition” value in series [7] was 61.8%.
Regarding `CNS(=O)(=O)Nc1cccc(Cc2c(CN3CCNCC3)c3ccc(OC(=O)N(C)C)cc3oc2=O)c1Cl` [Compound 246, 3-(2-chloro-3-((N-methylsulfamoyl)amino)benzyl)-2-oxo-4-(piperazin-1-ylmethyl)-2H-chromen-7-yl dimethylcarbamate hydrochloride], the results for the inhibition at 30 min, 10 µM in series [3], in series [5] and in series [6] were 5.1%, -3.7% and 29.7%, respectively. The same molecule came in with a half-life at 2 μM in series [4] of 1720 min. The CLint scaled at 2 μM in series [4] (setting [10]) and in series [4] (read-out: CLint (mL/min/kg)) was 0.13 L/h/kg throughout.
Take `CCS(=O)(=O)Nc1cccc(Cc2c(CN(C)C)c3ccc(OC(=O)N(C)C)cc3oc2=O)c1F` [Compound 120]: the solubility (kinetic) at 4 h in series [1] is given as over 80 µM. Also, in series [2], the “AUC0-∞” value came to 673.2 ng·h/mL, the “AUC(0-t)” value was found to be 669.3 ng·h/mL, the “Cmax” value amounted to 1422.7 ng/mL and the “T1/2” value turned out to be 18 min. The “Tmax” value in series [2] came out at 4.98 min. For the same molecule, the “CYP-1A2 (Phenacetin) mean percentage CYP inhibition” value in series [5] was −3.7%. For the same molecule, in series [7], the “CYP-2C8 (Amodiaquine) mean percentage CYP inhibition” value amounted to 21.9%.
As to `CNS(=O)(=O)Nc1cccc(Cc2c(CN(C)C)c3cc(F)c(OC(=O)N(C)C)cc3oc2=O)c1F` [Compound 25], the kinetic solubility at 4 h in series [1] is listed as over 80 µM. Also, in series [2], the “AUC0-∞” value came to 1426 ng·h/mL, the “AUC(0-t)” value was found to be 1336 ng·h/mL, the maximum concentration (Cmax) was 1037 ng/mL and the “T1/2” value was 66 min. Moreover, in series [2], the “Tmax” value was determined as 4.98 min. The “CYP-1A2 (Phenacetin) mean percentage CYP inhibition” value in series [5] came to 7.9%. Also, in series [7], the “CYP-2C8 (Amodiaquine) mean percentage CYP inhibition” value worked out at 77.2%.
`CCN(C)Cc1c(Cc2cccc(NS(=O)(=O)NC)c2F)c(=O)oc2cc(OC(=O)N(C)C)c(F)cc12` [Compound 238]: in series [1] (setting [8]), the solubility (kinetic) at 4 h was determined as 40 µM (≈ 21.5 µg/mL). In series [2] (female, mouse), this molecule showed an AUC(0-inf) of 434 ng·h/mL and a half-life of 60 min. The AUC(0-t) in series [2] (setting [9]) came to 416 ng·h/mL. Also, in series [2] (female, mouse, read-out: Cmax), the Cmax came to 857 ng/mL. For the same molecule, the Tmax in series [2] (female, mouse, read-out: Tmax) came out at 4.98 min. The molecule further yielded a half-life at 2 μM in series [4] of 64 min. Further, in series [4] (setting [10]), the CLint scaled at 2 μM was 3.51 L/h/kg. In addition, the CLint scaled at 2 μM in series [4] (read-out: CLint (mL/min/kg)) was 3.5 L/h/kg.
In the case of `CNS(=O)(=O)Nc1cccc(Cc2c(CN3CCNCC3)c3cc(F)c(OC(=O)N(C)C)cc3oc2=O)c1F` [Compound 134], in series [5], the “CYP-1A2 (Phenacetin) mean percentage CYP inhibition” value is on record as −0.9%. Also, the “CYP-2C8 (Amodiaquine) mean percentage CYP inhibition” value in series [7] turned out to be 78.8%.
